Measurements as given in patent US20260207623A1, “USE OF ESTETROL IN HEPATICALLY IMPAIRED PATIENTS” (ESTETRA SRL, priority 2022, published 2026).
Entries after “also recorded” stand apart in the source; their conditions may differ. Read-outs that look alike come from different tables or passages of the source.

Experiments:
[1] = test system: post-menopausal women; assay: Example 3: severity of moderate to severe VMS; format: in vivo, human; conditions: 15 mg and 20 mg vs placebo; weeks 4 and 12 (FIG. 12)
Procedure: A further clinical study was designed to evaluate the effect of 15 or 20 mg estetrol (E4) monohydrate, or placebo on the severity and frequency of vasomotor symptoms (VMS) and the safety of E4 20 mg. The inclusion and exclusion criteria as described for Example 2 were maintained for the present Example (i.e. Example 3).
• 1. Mean change in weekly frequency of moderate to severe vasomotor symptoms (VMS) from Baseline to Week 4 (Efficacy Study Part) [Time Frame: Baseline and Week 4]: • The weekly frequency of moderate to severe VMS at Baseline and Week 4 is defined as the total number (sum) of all recorded moderate to severe VMS experienced during the last 7 consecutive days prior randomization for Baseline and at Week 4. Mean change=mean weekly frequency at Week 4-mean weekly frequency at Baseline. • 2. Mean change in weekly frequency of moderate to severe vasomotor symptoms (VMS) from Baseline to Week 12 (Efficacy Study Part) [Time Frame: Baseline and Week 12] • The weekly frequency of moderate to severe VMS at Baseline and Week 12 is defined as the total number (sum) of all recorded moderate to severe VMS experienced during the last 7 consecutive days prior randomization for Baseline and at Week 12. Mean change=mean weekly frequency at Week 12-mean weekly frequency at Baseline. • 3. […]

[2] = test system: Haemoglobin A1C; assay: Example 3: haemoglobin A1C, change from baseline to week 12; format: in vivo, human
[3] = test system: fasting glucose; assay: Example 3: fasting glucose, change from baseline to week 12; format: in vivo, human
[4] = cited from earlier work
[5] = 15 mg and 20 mg, after 12 weeks, monohydrate

SMILES | severity of moderate to severe VMS [1] | haemoglobin A1C levels [2, 5] | Haemoglobin A1C, mean ([2]; 15 mg, Baseline) | Haemoglobin A1C, mean ([2]; 15 mg, Week 12) | Haemoglobin A1C, mean ([2]; 20 mg, Baseline) | Haemoglobin A1C, mean ([2]; 20 mg, Week 12) | fasting glucose levels [3, 5] | Fasting Glucose, mean ([3]; 15 mg, Baseline) | Fasting Glucose, mean ([3]; 15 mg, Week 12) | Fasting Glucose, mean ([3]; 20 mg, Baseline) | Fasting Glucose, mean ([3]; 20 mg, Week 12) | dose up to which well tolerated and safe ([4]; given as a single dose) | dose up to which well tolerated and safe ([4]; given once daily for 28 days)
C[C@]12CC[C@@H]3c4ccc(O)cc4CC[C@H]3[C@@H]1[C@@H](O)[C@@H](O)[C@@H]2O [E4 monohydrate, estetrol monohydrate] | significantly decreased | decreased; also recorded: reduced | 5.625 | 5.504 | 5.605 | 5.458 | decreased; also recorded: reduced | 5.156 | 5.057 | 5.177 | 5.057 |  | 
C[C@]12CC[C@@H]3c4ccc(O)cc4CC[C@H]3[C@@H]1[C@@H](O)[C@@H](O)[C@@H]2O [E4, 1,3,5 (10)-estratrien-3,15alpha, 16alpha, 17beta-tetrol] |  |  |  |  |  |  |  |  |  |  |  | up to 100 mg | up to 40 mg
